Experiments:
Type in all cases: biochemical
K-Ras G12D = target: T1, K-Ras G12D (Homo sapiens, UniProt P01116, G12D); experiment: HTRF resonance energy transfer assay, K-Ras G12D / SOS1 interaction; settings: HTRF assay of Example 5; read-out: IC50 against K-Ras G12D
T1 construct: made in house; host or cells: E. coli BL21 (DE3)
Description: (§1) This assay can be also used to assess a selective inhibition or reduction of signaling output of a mutant Ras protein relative to a wildtype, or relative to a different mutant Ras protein. For example, the equilibrium interaction of wildtype Kras or K-Ras mutant (e.g., wildtype or a mutant thereof) with SOS1 (e.g., hSOS1) can be assessed as a proxy or an indication for a subject compound's ability to bind and inhibit Ras protein. HTRF assay detects from (i) a fluorescence resonance energy transfer (FRET) donor (e.g., antiGST-Europium) that is bound to GST-tagged K-Ras mutant to (ii) a FRET acceptor (e.g., anti-6His-XL665) bound to a His-tagged hSOS1.
(§2) The assay buffer can contain˜5 mM HEPES pH 7.4, ˜150 mM NaCl, ˜ 1 mM DTT, 0.05% BSA and 0.0025%(v/v) Igepal. A Ras working solution is prepared in an assay buffer containing typically a suitable amount of the protein construct (e.g., GST-tagged K-Ras mutant) and the FRET donor (e.g., antiGST-Eu(K) from Cisbio, France). A SOS1 working solution is prepared in an assay buffer containing suitable amount of the protein construct (e.g., His-hSOS1) and the FRET acceptor (e.g., anti-6His-XL665 from Cisbio, France). A suitable amount of the protein construct will depend on the range of activity or range of IC50 values being detected or under investigation. For detecting IC50 within a range of 500 nM, the protein constructs of the same range of molarity can be utilized.
(§3) A fixed volume of DMSO with or without test compound is transferred into a 384-well plate. Ras working solution is added to all wells of the test plate. SOS1 working solution is added to all wells except for those that are subsequently filled the inhibitor control solution. Upon incubation for about 10 minutes or longer, the fluorescence is measured with a M1000Pro plate reader (Tecan) using HTRF detection (excitation 337 nm, emission 1: 620 nm, emission 2: 665 nm). Compounds are tested in duplicates at different concentrations (for example, 10 μM, 2.5 μM, 0.63 μM, 0.16 μM, 0.04 μM, 0.01 μM test compound). The ratiometric data (i.e., emission 2 divided by emission 1) is used to calculate IC50 values against Ras using GraphPad Prism (GraphPad software). Following this general procedure, samples were tested with or without a subject compound disclosed herein including compounds exemplified in Table 1 to assess their abilities to inhibit a K-Ras mutant relative to another mutant or WT. Signaling output measured in terms of IC50 values can be obtained, a ratio of IC50 against one mutant relative to another mutant can be calculated. For instance, a selective reduction of K-Ras G12D signaling output can be evidenced by a ratio greater than one. In particular, a selective reduction of K-Ras G12D signaling relative to K-Ras WT signaling is evidenced as the ratio of IC50 (against K-Ras WT) to IC50 (against K-Ras G12D) is greater than 1.

K-Ras G12S = target: T2, K-Ras G12S (Homo sapiens, UniProt P01116, G12S); experiment: HTRF resonance energy transfer assay, K-Ras G12S / SOS1 interaction; settings: HTRF assay of Example 5; read-out: IC50 against K-Ras G12S
T2 construct: made in house; host or cells: E. coli BL21 (DE3)
Description: as §1, §2, §3

K-Ras G12V = target: T3, K-Ras G12V (Homo sapiens, UniProt P01116, G12V); experiment: HTRF resonance energy transfer assay, K-Ras G12V / SOS1 interaction; settings: HTRF assay of Example 5; read-out: IC50 against K-Ras G12V
T3 construct: made in house; host or cells: E. coli BL21 (DE3)
Description: as §1, §2, §3

K-Ras WT = target: T4, K-Ras WT (Homo sapiens, UniProt P01116); experiment: HTRF resonance energy transfer assay, K-Ras WT / SOS1 interaction; settings: HTRF assay of Example 5; read-out: IC50 against K-Ras WT
T4 construct: made in house; host or cells: E. coli BL21 (DE3)
Description: as §1, §2, §3

T4 sequence (P01116 1-188 isoform P01116-2): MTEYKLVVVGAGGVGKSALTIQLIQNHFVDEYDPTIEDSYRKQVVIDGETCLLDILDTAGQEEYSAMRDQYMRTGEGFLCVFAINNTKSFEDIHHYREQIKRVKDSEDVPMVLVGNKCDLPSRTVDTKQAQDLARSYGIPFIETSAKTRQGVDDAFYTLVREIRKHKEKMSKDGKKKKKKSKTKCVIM
T1 sequence (P01116 1-188 isoform P01116-2 G12D): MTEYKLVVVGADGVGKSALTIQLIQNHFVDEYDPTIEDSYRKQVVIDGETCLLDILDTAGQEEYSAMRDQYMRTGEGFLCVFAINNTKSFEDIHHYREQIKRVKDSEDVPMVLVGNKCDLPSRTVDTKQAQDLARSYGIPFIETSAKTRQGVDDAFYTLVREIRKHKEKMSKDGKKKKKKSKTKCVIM
T3 sequence (P01116 1-188 isoform P01116-2 G12V): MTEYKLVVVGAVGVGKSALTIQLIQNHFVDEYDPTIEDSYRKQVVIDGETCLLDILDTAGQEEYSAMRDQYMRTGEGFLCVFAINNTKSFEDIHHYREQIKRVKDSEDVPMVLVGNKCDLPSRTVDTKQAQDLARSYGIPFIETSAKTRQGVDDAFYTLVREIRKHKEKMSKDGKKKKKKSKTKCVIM
T2 sequence (P01116 1-188 isoform P01116-2 G12S): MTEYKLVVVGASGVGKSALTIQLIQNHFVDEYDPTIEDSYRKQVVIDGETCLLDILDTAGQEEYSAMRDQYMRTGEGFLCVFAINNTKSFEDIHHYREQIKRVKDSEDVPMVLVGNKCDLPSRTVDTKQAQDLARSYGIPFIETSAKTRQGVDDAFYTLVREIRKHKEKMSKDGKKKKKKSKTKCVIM

Compound	IC50 (K-Ras G12D) [nM]	IC50 (K-Ras G12S) [nM]	IC50 (K-Ras G12V) [nM]	IC50 (K-Ras WT) [nM]
C[C@H](Oc1nc2c3c(c(Cl)c(-c4ccc(F)c5sc(N)c(C#N)c45)c(F)c3n1)OCCN2C1CC2(CNC2)C1)[C@@H]1CCCN1C [Compound 856, 2-amino-4-(8-chloro-10-fluoro-2-((S)-1-((S)-1-methylpyrrolidin-2-yl)ethoxy)-4-(2-azaspiro[3.3]heptan-6-yl)-5,6-dihydro-4H-[1,4]oxazepino[5,6,7-de]quinazolin-9-yl)-7-fluorobenzo[b]thiophene-3-carbonitrile]	< 100	< 100	< 100	< 100
N#Cc1c(N)sc2c(F)ccc(-c3c(Cl)c4c5c(nc(OC[C@@]67CCCN6C[C@H](F)C7)nc5c3F)N(C3CCCCN(C(=O)C5CN5)C3)CCO4)c12 (stereo partly drawn) [Compound 934, 2-amino-4-(4-(1-(aziridine-2-carbonyl)azepan-3-yl)-8-chloro-10-fluoro-2-(((2R,7aS)-2-fluorotetrahydro-1H-pyrrolizin-7a(5H)-yl)methoxy)-5,6-dihydro-4H-[1,4]oxazepino[5,6,7-de]quinazolin-9-yl)-7-fluorobenzo[b]thiophene-3-carbonitrile]	< 100	< 100	< 100	< 100
N#Cc1c(N)sc2c(F)ccc(-c3c(Cl)c4c5c(nc(OC[C@@]67CCCN6C[C@H](F)C7)nc5c3F)N(C3CCNCC3)CCO4)c12 [Compound 760, 2-amino-4-(8-chloro-10-fluoro-2-(((2R,7aS)-2-fluorotetrahydro-1H-pyrrolizin-7a(5H)-yl)methoxy)-4-(piperidin-4-yl)-5,6-dihydro-4H-[1,4]oxazepino[5,6,7-de]quinazolin-9-yl)-7-fluorobenzo[b]thiophene-3-carbonitrile]	< 100	< 100	< 100	< 100
C#Cc1c(F)ccc2cc(O)cc(-c3nc4c5c(nc(OC[C@@]67CCCN6C[C@H](F)C7)nc5c3F)N(C3CCCN(C=O)C3)CCO4)c12 (stereo partly drawn) [Compound 1066, 3-(5-(8-ethynyl-7-fluoro-3-hydroxynaphthalen-1-yl)-4-fluoro-2-(((2R,7aS)-2-fluorotetrahydro-1H-pyrrolizin-7a(5H)-yl)methoxy)-8,9-dihydro-10H-7-oxa-1,3,6,10-tetraazacyclohepta[de]naphthalen-10-yl)piperidine-1-carbaldehyde]	< 100	< 100	< 100	< 100
N#Cc1c(N)sc2c(F)ccc(-c3c(Cl)c4c5c(nc(OC[C@@]67CCCN6C[C@H](F)C7)nc5c3F)N(CC3(N)CCC3)CCCO4)c12 [Compound 1213, 2-amino-4-(4-((1-aminocyclobutyl)methyl)-9-chloro-11-fluoro-2-(((2R,7aS)-2-fluorotetrahydro-1H-pyrrolizin-7a(5H)-yl)methoxy)-4,5,6,7-tetrahydro-[1,5]oxazocino [4,3,2-de]quinazolin-10-yl)-7-fluorobenzo[b]thiophene-3-carbonitrile]	< 100	< 100	< 100	< 100
N#Cc1c(N)sc2c(F)ccc(-c3c(Cl)c4c5c(nc(OC[C@@]67CCCN6C[C@H](F)C7)nc5c3F)N(CC3(C(F)(F)F)CC3)CCO4)c12 [Compound 953, 2-amino-4-(8-chloro-10-fluoro-2-(((2R,7aS)-2-fluorotetrahydro-1H-pyrrolizin-7a(5H)-yl)methoxy)-4-((1-(trifluoromethyl)cyclopropyl)methyl)-5,6-dihydro-4H-[1,4]oxazepino[5,6,7-de]quinazolin-9-yl)-7-fluorobenzo[b]thiophene-3-carbonitrile]	< 100	< 100		< 100
C[C@H]1CN(C2CCN(C(=O)C(F)F)CC2)c2nc(OC[C@@]34CCCN3C[C@H](F)C4)nc3c(F)c(-c4ccc(F)c5sc(N)c(C#N)c45)c(Cl)c(c23)O1 [Compound 822, 2-amino-4-((6S)-8-chloro-4-(1-(2,2-difluoroacetyl)piperidin-4-yl)-10-fluoro-2-(((2R,7aS)-2-fluorotetrahydro-1H-pyrrolizin-7a(5H)-yl)methoxy)-6-methyl-5,6-dihydro-4H-[1,4]oxazepino[5,6,7-de]quinazolin-9-yl)-7-fluorobenzo[b]thiophene-3-carbonitrile]	< 100	< 100		< 100

The next lines start with the values.

IC50 (K-Ras G12D) [nM]	IC50 (K-Ras G12S) [nM]	IC50 (K-Ras G12V) [nM]	IC50 (K-Ras WT) [nM]	Compound
< 100	< 100	< 100	< 100	N#CCC1COc2c(Cl)c(-c3ccc(F)c4sc(N)c(C#N)c34)c(F)c3nc(OC[C@@]45CCCN4C[C@H](F)C5)nc(c23)N1CCCN (stereo partly drawn) [Compound 1029, 2-amino-4-(4-(3-aminopropyl)-8-chloro-5-(cyanomethyl)-10-fluoro-2-(((2R,7aS)-2-fluorotetrahydro-1H-pyrrolizin-7a(5H)-yl)methoxy)-5,6-dihydro-4H-[1,4]oxazepino[5,6,7-de]quinazolin-9-yl)-7-fluorobenzo[b]thiophene-3-carbonitrile]
< 100	< 100	< 100	< 100	CNCCCN1CCOc2c(Cl)c(-c3ccc(F)c4sc(N)c(C#N)c34)c(F)c3nc(OC[C@@]45CCCN4C[C@H](F)C5)nc1c23 [Compound 778, 2-amino-4-(8-chloro-10-fluoro-2-(((2R,7aS)-2-fluorotetrahydro-1H-pyrrolizin-7a(5H)-yl)methoxy)-4-(3-(methylamino)propyl)-5,6-dihydro-4H-[1,4]oxazepino[5,6,7-de]quinazolin-9-yl)-7-fluorobenzo[b]thiophene-3-carbonitrile]
< 100		< 100	< 100	N#Cc1c(N)sc2c(F)ccc(-c3c(Cl)c4c5c(nc(OC[C@@]67CCCN6C[C@H](F)C7)nc5c3F)N(CC(F)F)[C@@H](C3CCC3)CO4)c12 [Compound 692, 2-amino-4-((S)-8-chloro-5-cyclobutyl-4-(2,2-difluoroethyl)-10-fluoro-2-(((2R,7aS)-2-fluorotetrahydro-1H-pyrrolizin-7a(5H)-yl)methoxy)-5,6-dihydro-4H-[1,4]oxazepino[5,6,7-de]quinazolin-9-yl)-7-fluorobenzo[b]thiophene-3-carbonitrile]
< 100	< 100	< 100	< 100	C#C[C@H]1COc2c(Cl)c(-c3ccc(F)c4sc(N)c(C#N)c34)c(F)c3nc(OC[C@@]45CCCN4C[C@H](F)C5)nc(c23)N1CCC(F)F [Compound 788, 2-amino-4-((5S)-8-chloro-4-(3,3-difluoropropyl)-5-ethynyl-10-fluoro-2-(((2R,7aS)-2-fluorotetrahydro-1H-pyrrolizin-7a(5H)-yl)methoxy)-5,6-dihydro-4H-[1,4]oxazepino[5,6,7-de]quinazolin-9-yl)-7-fluorobenzo[b]thiophene-3-carbonitrile]
< 100	< 100		< 100	CS(=O)(=O)NCC1COc2c(Cl)c(-c3ccc(F)c4sc(N)c(C#N)c34)c(F)c3nc(OC[C@@]45CCCN4C[C@H](F)C5)nc(c23)N1CC(F)F (stereo partly drawn) [Compound 867, N-((9-(2-amino-3-cyano-7-fluorobenzo[b]thiophen-4-yl)-8-chloro-4-(2,2-difluoroethyl)-10-fluoro-2-(((2R,7aS)-2-fluorotetrahydro-1H-pyrrolizin-7a(5H)-yl)methoxy)-5,6-dihydro-4H-[1,4]oxazepino[5,6,7-de]quinazolin-5-yl)methyl)methanesulfonamide]

From patent US12209102B2, “Heterocyclic compounds and uses thereof” (Kumquat Biosciences Inc., priority 2022, dated 2025)
